{"source": "patent US4016259A", "about": "“Contraceptive polypeptides” (Research Corporation, priority 1975, dated 1977)", "key": {"hamsters": {"system": "hamsters", "assay": "Control of pregnancy in hamsters, compound in phosphate buffer pH 7.1 subcutaneously or orally", "format": "in vivo, hamster"}, "Hamster": {"system": "Hamster", "assay": "Female Anti-Fertility test (Table I), implants counted at autopsy", "format": "in vivo", "conditions": "subc., saline, days (-4)-(-1), autopsy day 10", "procedure": "In one study carried out with hamsters Thr-Pro-Arg-Lys as the diacetate was administered subcutaneously in isotonic solution at dosage levels of 2, […], once daily starting on the day of postovulatory discharge (-4) prior to mating. Treatment was continued until the fourth day after ovulation. The animals were mated and then sacrificed on the tenth day. The uterus was opened, and the number of implants counted.\nTEST Female Anti-Fertility\nROUTE OF ADMINISTRATION Subc.\nOnce daily for four days, starting on the day\nof postovulatory discharge, prior to mating."}}, "note": "Peptide text beside a SMILES is read from it.", "data": [{"smiles": "C[C@@H](O)[C@H](N)C(=O)N1CCC[C@H]1C(=O)N[C@@H](CCCNC(=N)N)C(=O)N[C@@H](CCCCN)C(=O)O", "note": "[Thr-Pro-Arg-Lys, threonyl-prolyl-arginyl-lysine] (H-TPRK-OH)", "values": [{"measurement": "number of pregnancies", "setting": "hamsters; administered orally at 35 to 50 μg/100 gm/day", "value": "reduced to zero"}, {"measurement": "number of implantations per animal", "setting": "hamsters; subcutaneous, phosphate buffer pH 7.1, at 0.7 mcg/gm/day", "value": "less than one"}, {"measurement": "effective dose (number of implantations per animal reduced to less than one)", "setting": "hamsters; subcutaneous, phosphate buffer pH 7.1, calculated as free base", "value": 0.7, "unit": "mcg/gm/day"}, {"measurement": "Average No. of Implants", "setting": "Hamster; daily dose 2.0 μg/100 mg", "value": 0.5}, {"measurement": "Total No. of Normal Fetuses", "setting": "Hamster; daily dose 2.0 μg/100 mg", "value": 5}, {"measurement": "Total No. of Resorbing Fetuses", "setting": "Hamster; daily dose 2.0 μg/100 mg", "value": 0}, {"measurement": "No. of Animals with Implantations", "setting": "Hamster; daily dose 2.0 μg/100 mg, 10/10 sperm +", "value": 1}, {"measurement": "Average No. of Implants", "setting": "Hamster; daily dose 10.0 μg/100 mg", "value": 4.6}, {"measurement": "Total No. of Normal Fetuses", "setting": "Hamster; daily dose 10.0 μg/100 mg", "value": 46}, {"measurement": "Total No. of Resorbing Fetuses", "setting": "Hamster; daily dose 10.0 μg/100 mg", "value": 3}, {"measurement": "No. of Animals with Implantations", "setting": "Hamster; daily dose 10.0 μg/100 mg, 10/10 sperm +", "value": 4}, {"measurement": "Average No. of Implants", "setting": "Hamster; daily dose 100.0 μg/100 mg", "value": 5.9}, {"measurement": "Total No. of Normal Fetuses", "setting": "Hamster; daily dose 100.0 μg/100 mg", "value": 53}, {"measurement": "Total No. of Resorbing Fetuses", "setting": "Hamster; daily dose 100.0 μg/100 mg", "value": 1}, {"measurement": "No. of Animals with Implantations", "setting": "Hamster; daily dose 100.0 μg/100 mg, 9/10 sperm +", "value": 4}]}]}
